*1 amine or outer side, *2 acyl side, *3 side chain or, on linkers, in order; H or OH if unused. Where a SMILES comes first, the peptide text is derived from it. Bridges are numbered along the chain shown (N, C = ends). [ ]: non-standard residue; d: D form. The star is where a group is joined. hPhe(3-Cl-4-CF3) = N[C@@H](CCc1ccc(C(F)(F)F)c(Cl)c1)C(=O)O; NPrPhe(4-CF3) = CCCN[C@@H](Cc1ccc(C(F)(F)F)cc1)C(=O)O; X12 = COCCN([C@@H](Cc1ccc(C)cc1)C(=O)[*:2])[*:1]; NMeGly(cPent) = CN[C@H](C(=O)O)C1CCCC1; NMeD = CN[C@@H](CC(=O)O)C(=O)O; NMeL = CN[C@@H](CC(C)C)C(=O)O; Morpholide = C1CN(*)CCO1; NMeA = CN[C@@H](C)C(=O)O; Ac5c = NC1(C(=O)O)CCCC1; Aze = O=C(O)[C@@H]1CCN1; NEtG = CCNCC(=O)O; Sar = CNCC(=O)O
How the values were obtained:
[1] = molecular target: GDP-bound NRAS wild-type protein (Homo sapiens, UniProt P01111); assay: Binding to NRAS by surface plasmon resonance (SPR), Single Cycle Kinetics
Sequence of GDP-bound NRAS wild-type protein (P01111 whole entry): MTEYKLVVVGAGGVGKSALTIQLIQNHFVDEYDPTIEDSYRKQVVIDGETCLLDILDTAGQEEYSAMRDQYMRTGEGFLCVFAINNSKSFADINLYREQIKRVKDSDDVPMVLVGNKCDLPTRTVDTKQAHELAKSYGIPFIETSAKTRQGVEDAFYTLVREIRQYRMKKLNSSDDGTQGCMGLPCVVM

[2] = molecular target: GDP-bound HRAS wild-type protein (Homo sapiens, UniProt P01112); assay: Binding to HRAS by surface plasmon resonance (SPR), Single Cycle Kinetics
Sequence of GDP-bound HRAS wild-type protein (P01112 whole entry): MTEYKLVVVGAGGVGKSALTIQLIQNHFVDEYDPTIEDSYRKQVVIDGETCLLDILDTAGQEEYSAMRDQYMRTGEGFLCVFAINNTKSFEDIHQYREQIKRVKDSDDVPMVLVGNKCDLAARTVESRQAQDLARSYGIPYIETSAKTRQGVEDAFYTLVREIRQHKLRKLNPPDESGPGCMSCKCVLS

[3] = SPR, GDP-bound wild-type proteins
[4] = KD ratio, GDP-bound NRAS wild-type vs GDP-bound KRAS wild-type, SPR
[5] = KD ratio, GDP-bound HRAS wild-type vs GDP-bound KRAS wild-type, SPR

CCC[C@H]1C(=O)N[C@@H](CC(C)C)C(=O)N(CCOC)CC(=O)N(C)[C@H]2C/C=C\CCN(C2=O)[C@@H](Cc2ccc(C)cc2)C(=O)N(C)CC(=O)N[C@@H](CCc2ccc(C(F)(F)F)c(Cl)c2)C(=O)N2C[C@H](OCC)C[C@H]2C(=O)NC2(CCC2)C(=O)N(C)[C@@H](C2CCCC2)C(=O)N(C)[C@H](C(=O)N(C)C)CC(=O)N1C [PP2546]
NRAS/KRAS (ratio of KD value with respect to GDP-bound NRAS wild-type protein to KD value with respect to KRAS) ([1]; class symbols): B (a compound having 3 or more and less than 10 is denoted as B) | HRAS/KRAS (ratio of KD value with respect to GDP-bound HRAS wild-type protein to KD value with respect to KRAS) ([2]; class symbols): B (a compound having 3 or more and less than 10 is denoted as B)

CCO[C@@H]1C[C@H]2C(=O)NC3(CCC3)C(=O)N(C)[C@@H](C3CCCC3)C(=O)N(C)[C@H](C(=O)N(C)C)CC(=O)N(C)[C@@H](C)C(=O)N[C@@H]([C@H](C)CC)C(=O)N(C)CC(=O)N(C)[C@H]3CCCCCN(C3=O)[C@@H](Cc3ccc(C(F)(F)F)cc3)C(=O)N(C)CC(=O)N[C@@H](CCc3cc(F)c(C(F)(F)F)c(F)c3)C(=O)N2C1 [PP0729]
NRAS/KRAS (ratio of KD value with respect to GDP-bound NRAS wild-type protein to KD value with respect to KRAS) ([1]; SPR): B (a compound having 3 or more and less than 10 is denoted as B) | HRAS/KRAS (ratio of KD value with respect to GDP-bound HRAS wild-type protein to KD value with respect to KRAS) ([2]; SPR): B (a compound having 3 or more and less than 10 is denoted as B)

CCO[C@@H]1C[C@H]2C(=O)NC3(CC(C)(C)C3)C(=O)N(C)[C@@H](C3CCCC3)C(=O)N(C)[C@H](C(=O)N(C)C)CC(=O)N(C)[C@H]3CCCCCCc4ccc(cc4)C[C@@H](C(=O)N(C)CC(=O)N[C@@H](CCc4ccc(Cl)c(Cl)c4)C(=O)N2C1)N1CC/C=C\C[C@@H](C1=O)N(C)C(=O)CN(C)C(=O)[C@H]([C@@H](C)CC)NC3=O [PP3071]
NRAS/KRAS (ratio of KD value with respect to GDP-bound NRAS wild-type protein to KD value with respect to KRAS) [1, 3]: A (a compound having 10 or more and less than 20 is denoted as A) | HRAS/KRAS (ratio of KD value with respect to GDP-bound HRAS wild-type protein to KD value with respect to KRAS) [2, 3]: B (a compound having 3 or more and less than 10 is denoted as B)

CCO[C@@H]1C[C@H]2C(=O)NC3(CCC3)C(=O)N(C)[C@@H](C3CCCC3)C(=O)N(C)[C@H](C(=O)N3CCOCC3)CC(=O)N(C)[C@@H](Cc3ccccc3)C(=O)N[C@@H]([C@@H](C)CC)C(=O)N(C)CC(=O)N(C)[C@H]3CCCCCN(C3=O)[C@@H](Cc3ccc(C(F)(F)F)cc3)C(=O)N(C)CC(=O)N[C@@H](CCc3cc(F)c(C(F)(F)F)c(F)c3)C(=O)N2C1 [PP0687]
NRAS/KRAS (ratio of KD value with respect to GDP-bound NRAS wild-type protein to KD value with respect to KRAS) ([1]; SPR): B (a compound having 3 or more and less than 10 is denoted as B) | HRAS/KRAS (ratio of KD value with respect to GDP-bound HRAS wild-type protein to KD value with respect to KRAS) ([2]; SPR): B (a compound having 3 or more and less than 10 is denoted as B)

CC[C@H](C)[C@@H]1NC(=O)[C@H](CC(C)C)N(C)C(=O)C[C@@H](C(=O)N2CCOCC2)N(C)C(=O)[C@H](C2CCCC2)N(C)C(=O)C2(CCCC2)NC(=O)[C@@H]2[C@@H](O)CCN2C(=O)[C@H](CCc2cc(F)c(C(F)(F)F)c(F)c2)NC(=O)CN(C)C(=O)[C@H](Cc2ccc(C(F)(F)F)cc2)N2CCCC[C@@H](C2=O)N(C)C(=O)CN(C)C1=O [PP0558]
NRAS/KRAS (ratio of KD value with respect to GDP-bound NRAS wild-type protein to KD value with respect to KRAS) ([1]; SPR): B (a compound having 3 or more and less than 10 is denoted as B) | HRAS/KRAS (ratio of KD value with respect to GDP-bound HRAS wild-type protein to KD value with respect to KRAS) ([2]; SPR): B (a compound having 3 or more and less than 10 is denoted as B)

CC[C@H](C)[C@@H]1NC(=O)[C@H](CC(C)C)N(C)C(=O)C[C@@H](C(=O)N2CCOCC2)N(C)C(=O)[C@H](C2CCCC2)N(C)C(=O)C2(CCCC2)NC(=O)[C@@H]2CC(=O)CN2C(=O)[C@H](CCc2cc(F)c(C(F)(F)F)c(F)c2)NC(=O)CN(C)C(=O)[C@H](Cc2ccc(C(F)(F)F)cc2)N2CCCCC[C@@H](C2=O)N(C)C(=O)CN(C)C1=O [PP0493]
NRAS/KRAS (ratio of KD value with respect to GDP-bound NRAS wild-type protein to KD value with respect to KRAS) ([1]; SPR): B (a compound having 3 or more and less than 10 is denoted as B) | HRAS/KRAS (ratio of KD value with respect to GDP-bound HRAS wild-type protein to KD value with respect to KRAS) ([2]; SPR): B (a compound having 3 or more and less than 10 is denoted as B)

CC[C@H](C)[C@@H]1NC(=O)[C@H](CC(C)C)N(C)C(=O)C[C@@H](C(=O)N2CCOCC2)N(C)C(=O)[C@H](C2CCCC2)N(C)C(=O)C2(CCCC2)NC(=O)[C@@H]2CCCN2C(=O)[C@H](CCc2ccc(C(F)(F)F)c(Cl)c2)NC(=O)CN(C)C(=O)[C@H](Cc2ccc(C)cc2)N(CCOC)C(=O)[C@@H]2CCN2C(=O)[C@H](C)N(C)C1=O [PP0092] ([NMeL]I[NMeA][Aze][X12][Sar][hPhe(3-Cl-4-CF3)]P[Ac5c][NMeGly(cPent)][NMeD]-Morpholide; lactam N-11)
NRAS/KRAS (ratio of KD for GDP-bound NRAS wild-type to KD for KRAS) ([1]; SPR): C (A compound having a KD ratio of 0.1 or more and less than 3 is denoted as C) | HRAS/KRAS (ratio of KD for GDP-bound HRAS wild-type to KD for KRAS) ([2]; SPR): C (A compound having a KD ratio of 0.1 or more and less than 3 is denoted as C)

CCO[C@@H]1C[C@H]2C(=O)NC3(CC(C)(C)C3)C(=O)N(C)[C@@H](C3CCCC3)C(=O)N(C)[C@H](C(=O)N(CC)CC)CC(=O)N(C)[C@@H](COC)C(=O)N[C@@H]([C@@H](C)CC)C(=O)N(C)CC(=O)N(C)[C@H]3C/C=C\CCN(C3=O)[C@@H](Cc3ccc(C)cc3)C(=O)N(C)CC(=O)N[C@@H](CCc3cc(F)c(C(F)(F)F)c(F)c3)C(=O)N2C1 [PP2403]
NRAS/KRAS (ratio of KD value with respect to NRAS to KD value with respect to KRAS) ([1]; SPR, GDP-bound NRAS wild-type vs GDP-bound KRAS wild-type): A (a compound having 10 or more and less than 20 is denoted as A) | HRAS/KRAS (ratio of KD value with respect to HRAS to KD value with respect to KRAS) ([2]; SPR, GDP-bound HRAS wild-type vs GDP-bound KRAS wild-type): A (a compound having 10 or more and less than 20 is denoted as A)

CCCN(C)C(=O)[C@@H]1CC(=O)N(C)[C@@H](CC(F)F)C(=O)N[C@@H]([C@@H](C)CC)C(=O)N(C)CC(=O)N(C)[C@H]2C/C=C\CCN(C2=O)[C@@H](Cc2ccc(C(F)(F)F)cc2)C(=O)N(C)CC(=O)N[C@@H](CCc2ccc(C(F)(F)F)c(OC)c2)C(=O)N2C[C@H](OCC)C[C@H]2C(=O)NC2(CCC2)C(=O)N(C)[C@@H](C2CCCC2)C(=O)N1C [PP2013]
NRAS/KRAS (ratio of KD value for NRAS to KD value for KRAS) [1, 4]: A (a compound having 10 or more and less than 20 is denoted as A) | HRAS/KRAS (ratio of KD value for HRAS to KD value for KRAS) [2, 5]: B (a compound having 3 or more and less than 10 is denoted as B)

CCO[C@@H]1C[C@H]2C(=O)NC3(CCC3)C(=O)N(C)[C@@H](C3CCCC3)C(=O)N(C)[C@H](C(=O)N3C[C@@H](C)O[C@@H](C)C3)CC(=O)N(C)[C@@H](CC(C)C)C(=O)N[C@@H]([C@@H](C)CC)C(=O)N(C)CC(=O)N(C)[C@H]3CCCCCN(C3=O)[C@@H](Cc3ccc(F)cc3)C(=O)N(C)CC(=O)N[C@@H](CCc3ccc(C(F)(F)F)c(Cl)c3)C(=O)N2C1 [PP1153]
NRAS/KRAS (ratio of KD value with respect to NRAS to KD value with respect to KRAS) [1, 4]: B (a compound having 3 or more and less than 10 is denoted as B) | HRAS/KRAS (ratio of KD value with respect to HRAS to KD value with respect to KRAS) [2, 5]: B (a compound having 3 or more and less than 10 is denoted as B)

CCCN1C(=O)CN(C)C(=O)CN(CC)C(=O)[C@H]([C@@H](C)CC)NC(=O)[C@H](CC(C)C)N(C)C(=O)C[C@@H](C(=O)N2CCOCC2)NC(=O)[C@H](C2CCCC2)N(C)C(=O)C2(CCCC2)NC(=O)[C@@H]2CCCN2C(=O)[C@H](CCc2ccc(C(F)(F)F)c(Cl)c2)NC(=O)CN(C)C(=O)[C@@H]1Cc1ccc(C(F)(F)F)cc1 [PP0331] ([NMeL]I[NEtG][Sar][NPrPhe(4-CF3)][Sar][hPhe(3-Cl-4-CF3)]P[Ac5c][NMeGly(cPent)]D-Morpholide; lactam N-11)
NRAS/KRAS (ratio of KD for GDP-bound NRAS wild-type to KD for KRAS) ([1]; SPR): B (a compound having 3 or more and less than 10 is denoted as B) | HRAS/KRAS (ratio of KD for GDP-bound HRAS wild-type to KD for KRAS) ([2]; SPR): B (a compound having 3 or more and less than 10 is denoted as B)
